According to patent US8889704B2 (Array BioPharma Inc., priority 2011, dated 2014):
Counter-ions that a name gives are not always drawn.

Columns and labels:
Format in all cases: biochemical
[1] = molecular target: T1, GST-tagged recombinant full-length human Pim-2 (Homo sapiens, UniProt Q9P1W9); experiment: PIM-2 Assay (as Example A); settings: averaged IC50; 4 μM ATP, 1.0 μM PIM2tide, 1.5 nM Pim-2
T1 construct: GST-tagged recombinant full-length human Pim-2; GST
In short: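 Radiometric filter-binding assay: GST-tagged full-length human Pim-2 (1.5 nM) phosphorylates 1.0 μM PIM2tide with 4 μM [γ-33P]ATP for 60 min at 22 °C in pH 7.4 MOPS buffer, 2% DMSO. 10-point 3-fold dilutions from 10 μM top dose; IC50 from 4-parameter fit of percent of control.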

[2] = molecular target: PIM-1 (Homo sapiens, UniProt P11309); experiment: Enzyme PIM-1 Assay ([33P]ATP incorporation into PIM2tide, filter plate); settings: averaged IC50; 35 μM ATP, 7.5 μM PIM2tide, 0.25 nM PIM-1, 60 min at 22° C.
In short: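 Radiometric assay: 0.25 nM PIM-1 phosphorylates 7.5 μM PIM2tide with 35 μM [γ-33P]ATP in 20 mM MOPS pH 7.4, 10 mM MgCl2, 1 mM DTT, 0.005% Tween-20, 60 min at 22 °C. Product captured on P81 filters, scintillation counted; 10-point 3-fold curve from 10 μM top, 2% DMSO, IC50 by 4-parameter logistic fit of POC.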

[3] = molecular target: recombinant rat PIM-3 (Rattus norvegicus, UniProt O70444); experiment: PIM-3 Assay (as Example A); settings: averaged IC50; 30 μM ATP, 3.75 μM PIM2tide, 0.5 nM PIM-3
In short: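 Recombinant rat PIM-3 (0.5 nM) with 3.75 μM PIM2tide and 30 μM [γ-33P]ATP in MOPS pH 7.4 buffer, 60 min at 22 °C; labelled peptide captured on phosphocellulose filters and counted by scintillation. 10-point curve (top dose 10 μM, 2% DMSO); IC50 from 4-parameter fit of percent of control.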

Chain of PIM-1 (P11309 whole entry, species assumed): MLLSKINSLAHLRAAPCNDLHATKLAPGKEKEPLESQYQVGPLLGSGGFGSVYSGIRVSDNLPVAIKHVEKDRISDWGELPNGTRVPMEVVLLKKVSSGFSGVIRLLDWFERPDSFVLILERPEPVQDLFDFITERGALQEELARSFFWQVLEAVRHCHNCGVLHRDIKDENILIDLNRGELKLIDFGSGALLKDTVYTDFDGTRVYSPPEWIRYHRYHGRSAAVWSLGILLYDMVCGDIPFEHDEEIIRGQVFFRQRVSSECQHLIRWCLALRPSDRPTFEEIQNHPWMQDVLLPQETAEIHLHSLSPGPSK
T1 sequence (Q9P1W9 whole entry): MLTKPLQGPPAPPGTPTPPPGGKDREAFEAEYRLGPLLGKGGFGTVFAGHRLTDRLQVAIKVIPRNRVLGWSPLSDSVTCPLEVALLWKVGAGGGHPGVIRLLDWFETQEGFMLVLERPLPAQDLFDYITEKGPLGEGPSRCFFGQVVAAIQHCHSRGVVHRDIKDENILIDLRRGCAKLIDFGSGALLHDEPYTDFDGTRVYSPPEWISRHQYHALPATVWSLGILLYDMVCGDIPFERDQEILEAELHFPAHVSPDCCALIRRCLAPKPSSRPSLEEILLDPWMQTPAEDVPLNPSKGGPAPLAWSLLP

Structure (SMILES) | IC50 [1] [nM] | IC50 [2] [nM] | IC50 [3] [nM]
Cc1c(-c2cnn(C)c2C)ccc2ccc(-c3nnc4ccc([C@@H](N5CC[C@H](N)C5)C(F)(F)F)cn34)nc12 [Example 214, (3S)-1-((1R)-1-(3-(7-(1,5-dimethyl-1H-pyrazol-4-yl)-8-methylquinolin-2-yl)-[1,2,4]triazolo[4,3-a]pyridin-6-yl)-2,2,2-trifluoroethyl)pyrrolidin-3-amine dihydrochloride] | 138 | 0.38 | 0.4
CO[C@@H](C)COc1cc2nc(-c3nnc4ccc([C@H](N5CC[C@](C)(N)C5)C(F)(F)F)cn34)ccc2cc1F [Example 322, (S)-3-methyl-1-((S)-2,2,2-trifluoro-1-(3-(6-fluoro-7-((S)-2-methoxypropoxy)quinolin-2-yl)-[1,2,4]triazolo[4,3-a]pyridin-6-yl)ethyl)pyrrolidin-3-amine di-hydrochloride] | 22.7 | 0.08 | 0.1
CC(C)(C)c1cccc2ccc(-c3nnc4ccc([C@@H](N5CC[C@H](N)C5)C(F)(F)F)cn34)nc12 [Example 45, (S)-1-((R)-1-(3-(8-tert-butylquinolin-2-yl)-[1,2,4]triazolo[4,3-a]pyridin-6-yl)-2,2,2-trifluoroethyl)pyrrolidin-3-amine dihydrochloride] | 29 | 0.21 | 0.5
N[C@H]1CCN([C@H](c2ccc3nnc(-c4ccc5cccc(Cl)c5n4)n3c2)C(F)(F)F)C1 [Example 182, (S)-1-((R)-2,2,2-trifluoro-1-(3-(8-chloroquinolin-2-yl)-[1,2,4]triazolo[4,3-a]pyridin-6-yl)ethyl)pyrrolidin-3-amine dihydrochloride] | > 100 | 0.75 | 4.1
COc1c(F)cc2ccc(-c3nnc4ccc([C@@H](N5CC[C@H](N)C5)C(F)(F)F)cn34)nc2c1F [Example 178, (S)-1-((R)-1-(3-(6,8-difluoro-7-methoxyquinolin-2-yl)-[1,2,4]triazolo[4,3-a]pyridin-6-yl)-2,2,2-trifluoroethyl)pyrrolidin-3-amine dihydrochloride] | > 100 | 1.81 | 19
N#CCOc1cccc2ccc(-c3nnc4ccc([C@@H](N5CC[C@H](N)C5)C(F)(F)F)cn34)nc12 [Example 270, 2-(2-(6-((R)-1-((S)-3-aminopyrrolidin-1-yl)-2,2,2-trifluoroethyl)-[1,2,4]triazolo[4,3-a]pyridin-3-yl)quinolin-8-yloxy)acetonitrile formate] | 434 | 0.38 | 1.9
N[C@H]1CCN(C(c2ccc3nnc(-c4ccc5ccc(-c6cccnc6)cc5n4)n3c2)C(F)(F)F)C1 (stereo partly drawn) [Example 18, (3S)-1-(2,2,2-trifluoro-1-(3-(7-(pyridin-3-yl)quinolin-2-yl)-[1,2,4]triazolo[4,3-a]pyridin-6-yl)ethyl)pyrrolidin-3-amine tri-hydrochloride] | 172 | 0.25 | 0.5
CC(C)(C)c1cccc2ccc(-c3nnc4ccc([C@@H](N5C[C@@H](N)[C@H](O)C5)C(F)(F)F)cn34)nc12 [Example 145, (3R,4R)-4-amino-1-((R)-1-(3-(8-tert-butylquinolin-2-yl)-[1,2,4]triazolo[4,3-a]pyridin-6-yl)-2,2,2-trifluoroethyl)pyrrolidin-3-ol dihydrochloride] | 30 | 0.25 | 0.7
N[C@H]1CCN([C@H](c2ccc3nnc(-c4ccc5cc(F)cc(C6(CO)CC6)c5n4)n3c2)C(F)(F)F)C1 [Example 125, (1-(2-(6-((R)-1-((S)-3-aminopyrrolidin-1-yl)-2,2,2-trifluoroethyl)-[1,2,4]triazolo[4,3-a]pyridin-3-yl)-6-fluoroquinolin-8-yl)cyclopropyl)methanol dihydrochloride] | 6.2 | 0.11 | 0.4
COC[C@@H](C)Oc1cc2nc(-c3nnc4ccc([C@@H](N5CC[C@H](N)C5)C(F)(F)F)cn34)ccc2cc1F [Example 160, (S)-1-((R)-2,2,2-trifluoro-1-(3-(6-fluoro-7-((R)-1-methoxypropan-2-yloxy)quinolin-2-yl)-[1,2,4]triazolo[4,3-a]pyridin-6-yl)ethyl)pyrrolidin-3-amine dihydrochloride] | 46 | 0.16 | 0.4
CCOc1cc2nc(-c3nnc4ccc([C@@H](C)N5CC[C@H](N)C5)cn34)ccc2cc1F [Example 309, (S)-1-((R)-1-(3-(7-ethoxy-6-fluoroquinolin-2-yl)-[1,2,4]triazolo[4,3-a]pyridin-6-yl)ethyl)pyrrolidin-3-amine trihydrochloride] | 407 | 1.18 | 3
Cn1cc(-c2ccc3ccc(-c4nnc5ccc([C@H](N6CC[C@](C)(N)C6)C(F)(F)F)cn45)nc3c2)cn1 [Example 222, (S)-3-methyl-1-((S)-2,2,2-trifluoro-1-(3-(7-(1-methyl-1H-pyrazol-4-yl)quinolin-2-yl)-[1,2,4]triazolo[4,3-a]pyridin-6-yl)ethyl)pyrrolidin-3-amine dihydrochloride] | 77 | 0.22 | 0.2
COc1ccc2ccc(-c3nnc4ccc([C@@H](N5CC[C@H](N)C5)C(F)(F)F)cn34)nc2c1F [Example 167, (S)-1-((R)-2,2,2-trifluoro-1-(3-(8-fluoro-7-methoxyquinolin-2-yl)-[1,2,4]triazolo[4,3-a]pyridin-6-yl)ethyl)pyrrolidin-3-amine dihydrochloride] | > 100 | 2.04 | 12
FC(F)(F)[C@H](c1ccc2nnc(-c3ccc4cccc(OCC5CC5)c4n3)n2c1)N1C[C@@H]2C[C@H]1CN2 [Example 76, 2-(6-((S)-1-((1S,4S)-2,5-diazabicyclo[2.2.1]heptan-2-yl)-2,2,2-trifluoroethyl)-[1,2,4]triazolo[4,3-a]pyridin-3-yl)-8-(cyclopropylmethoxy)quinoline dihydrochloride] | 52 | 0.4 | 3.6
